Experimental data as given in PubChem BioAssay (NCI).
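GI50 = concentration required for 50% inhibition of growth. TGI marks complete inhibition of growth.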

What was measured:
Test in all cases: inhibition of tumour cell growth, NCI panel, 384-well format
[1] = tested on: A498 renal
[2] = tested on: A549 NSCLC
[3] = tested on: ACHN renal
[4] = tested on: BT-549 breast
[5] = tested on: CAKI-1 renal
[6] = tested on: COLO 205 colon
[7] = tested on: DU-145 prostate
[8] = tested on: EKVX NSCLC
[9] = tested on: HCC-2998 colon
[10] = tested on: HCT-116 colon
[11] = tested on: HCT-15 colon
[12] = tested on: HL-60(TB) leukemia
[13] = tested on: HOP-62 NSCLC
[14] = tested on: HS 578T breast
[15] = tested on: IGROV1 ovarian
[16] = tested on: KM12 colon
[17] = tested on: M14 melanoma
[18] = tested on: MALME-3M melanoma
[19] = tested on: MCF7 breast
[20] = tested on: MDA-MB-231 breast
[21] = tested on: MDA-MB-435 melanoma
[22] = tested on: MDA-MB-468 breast
[23] = tested on: MOLT-4 leukemia
[24] = tested on: NCI-H226 lung
[25] = tested on: NCI-H23 lung
[26] = tested on: NCI-H322M lung
[27] = tested on: NCI-H460 NSCLC
[28] = tested on: NCI-H522 lung
[29] = tested on: NCI/ADR-RES ovarian
[30] = tested on: OVCAR-3 ovarian
[31] = tested on: OVCAR-4 ovarian
[32] = tested on: RPMI-8226 leukemia
[33] = tested on: SF-268 CNS
[34] = tested on: SF-295 CNS
[35] = tested on: SF-539 CNS
[36] = tested on: SK-MEL-28 melanoma
[37] = tested on: SK-MEL-5 melanoma
[38] = tested on: SK-OV-3 ovarian
[39] = tested on: SN12C renal
[40] = tested on: SNB-19 CNS
[41] = tested on: SNB-75 CNS
[42] = tested on: SR leukemia
[43] = tested on: TK-10 renal
[44] = tested on: U251 glioblastoma
[45] = tested on: UACC-257 melanoma
[46] = tested on: UACC-62 melanoma
[47] = tested on: 786-0 renal
[48] = tested on: HOP-92 NSCLC
[49] = tested on: HT29 colon
[50] = tested on: LOX IMVI melanoma
[51] = tested on: OVCAR-5 ovarian
[52] = tested on: OVCAR-8 ovarian
[53] = tested on: PC-3 prostate
[54] = tested on: RXF 393 renal
[55] = tested on: SW-620 colon
[56] = tested on: T-47D breast
[57] = tested on: UO-31 renal

Compound: O=C(NC1CCNCC1)c1[nH]ncc1NC(=O)c1c(Cl)cccc1Cl
- GI50 [1]: 304 nM
- TGI [1]: 879 nM
- GI50 [2]: 388 nM
- TGI [2]: > 100000 nM
- GI50 [3]: 2360 nM
- TGI [3]: 34900 nM
- GI50 [4]: 183 nM
- TGI [4]: 377 nM
- GI50 [5]: 371 nM
- TGI [5]: > 100000 nM
- GI50 [6]: 126 nM
- TGI [6]: 391 nM
- GI50 [7]: 260 nM
- TGI [7]: 692 nM
- GI50 [8]: 366 nM
- TGI [8]: 1830 nM
- GI50 [9]: 151 nM
- TGI [9]: 360 nM
- GI50 [10]: 202 nM
- TGI [10]: > 100000 nM
- GI50 [11]: 3520 nM
- TGI [11]: 43500 nM
- GI50 [12]: 105 nM
- TGI [12]: 224 nM
- GI50 [13]: 212 nM
- TGI [13]: 500 nM
- GI50 [14]: 209 nM
- TGI [14]: 477 nM
- GI50 [15]: 286 nM
- TGI [15]: 809 nM
- GI50 [16]: 176 nM
- TGI [16]: > 100000 nM
- GI50 [17]: 257 nM
- TGI [17]: 619 nM
- GI50 [18]: 182 nM
- TGI [18]: 348 nM
- GI50 [19]: 59 nM
- TGI [19]: > 100000 nM
- GI50 [20]: 256 nM
- TGI [20]: > 100000 nM
- GI50 [21]: 191 nM
- TGI [21]: 379 nM
- GI50 [22]: 157 nM
- TGI [22]: 296 nM
- GI50 [23]: 200 nM
- TGI [23]: 344 nM
- GI50 [24]: 205 nM
- TGI [24]: 527 nM
- GI50 [25]: 180 nM
- TGI [25]: 345 nM
- GI50 [26]: 197 nM
- TGI [26]: 477 nM
- GI50 [27]: 168 nM
- TGI [27]: 379 nM
- GI50 [28]: 202 nM
- TGI [28]: 384 nM
- GI50 [29]: > 100000 nM
- TGI [29]: > 100000 nM
- GI50 [30]: 163 nM
- TGI [30]: 347 nM
- GI50 [31]: 262 nM
- TGI [31]: 560 nM
- GI50 [32]: 200 nM
- TGI [32]: 344 nM
- GI50 [33]: 186 nM
- TGI [33]: 478 nM
- GI50 [34]: 352 nM
- TGI [34]: > 100000 nM
- GI50 [35]: 212 nM
- TGI [35]: 454 nM
- GI50 [36]: 187 nM
- TGI [36]: 394 nM
- GI50 [37]: 183 nM
- TGI [37]: 337 nM
- GI50 [38]: 362 nM
- TGI [38]: > 100000 nM
- GI50 [39]: 181 nM
- TGI [39]: 395 nM
- GI50 [40]: 326 nM
- TGI [40]: > 100000 nM
- GI50 [41]: 194 nM
- TGI [41]: 356 nM
- GI50 [42]: 18.5 nM
- TGI [42]: 37.3 nM
- GI50 [43]: 528 nM
- TGI [43]: 9380 nM
- GI50 [44]: 268 nM
- TGI [44]: 703 nM
- GI50 [45]: 246 nM
- TGI [45]: 564 nM
- GI50 [46]: 169 nM
- TGI [46]: 369 nM

Compound: Nc1cccc2c1CN(C1CCC(=O)NC1=O)C2=O (stereo unspecified)
- GI50 [47]: > 100000 nM
- TGI [47]: > 100000 nM
- GI50 [1]: > 100000 nM
- TGI [1]: > 100000 nM
- GI50 [2]: > 100000 nM
- TGI [2]: > 100000 nM
- GI50 [3]: > 100000 nM
- TGI [3]: > 100000 nM
- GI50 [4]: > 100000 nM
- TGI [4]: > 100000 nM
- GI50 [5]: > 100000 nM
- TGI [5]: > 100000 nM
- GI50 [6]: > 100000 nM
- TGI [6]: > 100000 nM
- GI50 [7]: > 100000 nM
- TGI [7]: > 100000 nM
- GI50 [8]: > 100000 nM
- TGI [8]: > 100000 nM
- GI50 [9]: > 100000 nM
- TGI [9]: > 100000 nM
- GI50 [10]: > 100000 nM
- TGI [10]: > 100000 nM
- GI50 [11]: > 100000 nM
- TGI [11]: > 100000 nM
- GI50 [12]: > 100000 nM
- TGI [12]: > 100000 nM
- GI50 [13]: > 100000 nM
- TGI [13]: > 100000 nM
- GI50 [48]: > 100000 nM
- TGI [48]: > 100000 nM
- GI50 [14]: > 100000 nM
- TGI [14]: > 100000 nM
- GI50 [49]: > 100000 nM
- TGI [49]: > 100000 nM
- GI50 [15]: > 100000 nM
- TGI [15]: > 100000 nM
- GI50 [16]: > 100000 nM
- TGI [16]: > 100000 nM
- GI50 [50]: > 100000 nM
- TGI [50]: > 100000 nM
- GI50 [17]: > 100000 nM
- TGI [17]: > 100000 nM
- GI50 [18]: > 100000 nM
- TGI [18]: > 100000 nM
- GI50 [19]: > 100000 nM
- TGI [19]: > 100000 nM
- GI50 [20]: > 100000 nM
- TGI [20]: > 100000 nM
- GI50 [21]: > 100000 nM
- TGI [21]: > 100000 nM
- GI50 [22]: > 100000 nM
- TGI [22]: > 100000 nM
- GI50 [23]: > 100000 nM
- TGI [23]: > 100000 nM
- GI50 [24]: > 100000 nM
- TGI [24]: > 100000 nM
- GI50 [25]: > 100000 nM
- TGI [25]: > 100000 nM
- GI50 [26]: > 100000 nM
- TGI [26]: > 100000 nM
- GI50 [27]: > 100000 nM
- TGI [27]: > 100000 nM
- GI50 [28]: > 100000 nM
- TGI [28]: > 100000 nM
- GI50 [29]: > 100000 nM
- TGI [29]: > 100000 nM
- GI50 [30]: > 100000 nM
- TGI [30]: > 100000 nM
- GI50 [31]: > 100000 nM
- TGI [31]: > 100000 nM
- GI50 [51]: > 100000 nM
- TGI [51]: > 100000 nM
- GI50 [52]: > 100000 nM
- TGI [52]: > 100000 nM
- GI50 [53]: > 100000 nM
- TGI [53]: > 100000 nM
- GI50 [32]: > 100000 nM
- TGI [32]: > 100000 nM
- GI50 [54]: > 100000 nM
- TGI [54]: > 100000 nM
- GI50 [33]: > 100000 nM
- TGI [33]: > 100000 nM
- GI50 [34]: > 100000 nM
- TGI [34]: > 100000 nM
- GI50 [35]: > 100000 nM
- TGI [35]: > 100000 nM
- GI50 [36]: > 100000 nM
- TGI [36]: > 100000 nM
- GI50 [37]: > 100000 nM
- TGI [37]: > 100000 nM
- GI50 [38]: > 100000 nM
- TGI [38]: > 100000 nM
- GI50 [39]: > 100000 nM
- TGI [39]: > 100000 nM
- GI50 [40]: > 100000 nM
- TGI [40]: > 100000 nM
- GI50 [41]: > 100000 nM
- TGI [41]: > 100000 nM
- GI50 [42]: > 100000 nM
- TGI [42]: > 100000 nM
- GI50 [55]: > 100000 nM
- TGI [55]: > 100000 nM
- GI50 [56]: > 100000 nM
- TGI [56]: > 100000 nM
- GI50 [43]: > 100000 nM
- TGI [43]: > 100000 nM
- GI50 [44]: > 100000 nM
- TGI [44]: > 100000 nM
- GI50 [45]: > 100000 nM
- TGI [45]: > 100000 nM
- GI50 [46]: > 100000 nM
- TGI [46]: > 100000 nM
- GI50 [57]: > 100000 nM
- TGI [57]: > 100000 nM
